Experimental data: US20250144172A1, “ANTI-FIBROTIC SIALIDASE INHIBITOR COMPOUNDS AND METHODS OF USE” (The Texas A&M University System, priority 2016, published 2025)
Where two headings read alike, the source gives them in different places.

Experiments:
[1] = molecular target: human NEU2 (Homo sapiens (Human), UniProt Q9Y3R4); assay: human NEU2 sialidase inhibition
Description: (§1) Enzymatic activity may be defined as inhibited if the rate measured by the Michaelis-Menten equation in an in vitro assay using a substrate with a terminal sialic acid is inhibited by at least 50%. More specifically, a human sialidase inhibitor may be a compound that inhibits the rate of at least one human sialidase by at least 50% as measured by the Michaelis-Menten equation in an in vitro assay using the fluorometric substrate 4MU-NANA [2′-(4-Methylumbelliferyl)-α-D-N-acetylneuraminic acid.
(§2) In general, sialidase activity, including human sialidase activity, may be assessed at 37° C. in the presence of buffers ranging in pH from 3.7 to 7.4. […] Bovine serum albumin (BSA) is added to the buffer at a concentration of 100 ug/ml. Sialidase at a final concentration of 300 ng/ml is then added to the buffer. A sialidase inhibitor is then added to the mixture at a series of final concentrations. The reaction mixture is incubated for 30 minutes to allow the inhibitor to bind the sialidase. The fluorometric substrate 4MU-NANA [2′-(4-Methylumbelliferyl)-α-D-N-acetylneuraminic acid sodium salt hydrate is then added at a final concentration of 200 μM. […] The total volume of each reaction mixture is 0.1 ml. The cleavage of 4MU-NANA is then monitored by fluorescence every 20 minutes for 5 hours with excitation light at 360 nm and the fluorescence emission at 460 nm.
(§3) The fluorescence in the absence of sialidases is subtracted from all readings.

[2] = molecular target: human NEU4 (Homo sapiens (Human), UniProt Q8WWR8); assay: human NEU4 sialidase inhibition
Description: as §1, §2, §3

[3] = molecular target: human NEU3 (Homo sapiens (Human), UniProt Q9UQ49); assay: human NEU3 sialidase inhibition
Sequence of human NEU3 (Q9UQ49 whole entry): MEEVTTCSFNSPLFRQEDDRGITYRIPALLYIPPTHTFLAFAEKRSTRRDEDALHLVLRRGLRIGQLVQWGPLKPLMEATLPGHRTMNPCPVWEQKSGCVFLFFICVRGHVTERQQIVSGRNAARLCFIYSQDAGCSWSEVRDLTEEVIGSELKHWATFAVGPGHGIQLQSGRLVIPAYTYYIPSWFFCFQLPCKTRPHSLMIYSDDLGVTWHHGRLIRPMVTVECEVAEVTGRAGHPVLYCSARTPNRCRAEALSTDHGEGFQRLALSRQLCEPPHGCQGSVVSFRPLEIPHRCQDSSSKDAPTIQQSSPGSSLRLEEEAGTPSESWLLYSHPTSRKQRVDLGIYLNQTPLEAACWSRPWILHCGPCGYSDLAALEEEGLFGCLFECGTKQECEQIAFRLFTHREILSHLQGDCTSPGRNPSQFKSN
Description: as §1, §2, §3

[4] = molecular target: human NEU1 (Homo sapiens (Human), UniProt Q99519); assay: human NEU1 sialidase inhibition
Description: as §1, §2, §3

[5] = system: human PBMC; assay: fibrocyte formation in human PBMC, serum-free medium; assay type: cell-based; details: 5 days; 100 ng/ml sialidase, 10 μg/ml DANA or 1 μg/ml SAP
Procedure: Human peripheral blood was collected from healthy adult volunteers who gave written consent and with specific approval from the Texas A&M University human subjects Institutional Review Board. Peripheral blood mononuclear cells (PBMC) were isolated from blood using Ficoll-Paque Plus (GE Healthcare Biosciences, Piscataway, NJ). Human PBMC were incubated in serum-free medium (FibroLife basal media (LM-0001, Lifeline Cell Technology, Walkersville, MD), supplemented with 10 mM HEPES (Sigma-Aldrich, St. Louis, MO), 1x non-essential amino acids (Sigma-Aldrich), 1 mM sodium pyruvate (Sigma-Aldrich), 2 mM glutamine (Invitrogen, Carlsbad, CA), 100 U/ml penicillin, 100 μg/ml streptomycin (Sigma-Aldrich), and 1x ITS-3 (Sigma-Aldrich) in the presence of absence of 100 ng/ml recombinant human sialidases (Origene, Rockville MD), 10 μg/ml DANA (Calbiochem, San Diego, CA), or 1 μg/ml human SAP (Calbiochem). After 5 days, fibrocytes were counted, and results are presented in FIG. 5.

[6] = read-out: NEU2 IC50, human NEU2
[7] = read-out: NEU4 IC50, human NEU4
[8] = read-out: NEU3 IC50, human NEU3
[9] = read-out: NEU1 IC50, human NEU1

Sequence of human NEU2 (Q9Y3R4 whole entry): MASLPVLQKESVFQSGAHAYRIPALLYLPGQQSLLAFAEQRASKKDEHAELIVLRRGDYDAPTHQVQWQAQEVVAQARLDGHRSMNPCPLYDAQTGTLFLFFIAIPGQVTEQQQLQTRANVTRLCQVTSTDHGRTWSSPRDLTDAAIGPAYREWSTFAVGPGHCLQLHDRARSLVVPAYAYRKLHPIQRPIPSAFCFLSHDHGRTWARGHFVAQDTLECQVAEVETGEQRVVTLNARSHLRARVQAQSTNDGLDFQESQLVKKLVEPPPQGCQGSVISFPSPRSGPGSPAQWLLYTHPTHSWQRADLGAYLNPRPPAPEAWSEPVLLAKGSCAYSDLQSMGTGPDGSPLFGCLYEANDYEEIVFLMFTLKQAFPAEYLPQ
Sequence of human NEU4 (Q8WWR8 whole entry): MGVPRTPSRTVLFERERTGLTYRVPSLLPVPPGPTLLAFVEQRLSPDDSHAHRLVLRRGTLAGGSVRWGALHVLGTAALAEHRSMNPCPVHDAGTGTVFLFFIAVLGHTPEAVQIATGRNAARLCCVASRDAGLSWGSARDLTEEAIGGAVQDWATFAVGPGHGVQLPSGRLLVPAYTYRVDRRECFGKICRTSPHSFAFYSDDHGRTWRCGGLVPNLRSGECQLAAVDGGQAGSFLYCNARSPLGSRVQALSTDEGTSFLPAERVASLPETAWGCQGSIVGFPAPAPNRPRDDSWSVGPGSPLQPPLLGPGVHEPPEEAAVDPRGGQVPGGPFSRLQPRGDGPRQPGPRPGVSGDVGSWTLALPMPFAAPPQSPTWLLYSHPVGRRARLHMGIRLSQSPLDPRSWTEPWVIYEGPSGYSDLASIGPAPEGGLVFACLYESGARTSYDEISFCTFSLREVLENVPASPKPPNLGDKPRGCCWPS

2,6-Anhydro-3,5-dideoxy-5-glycolylamido-D-glycero-D-galactonon-2-enonic acid [Compound 39]
IC50 [1, 6]: 34 ± 4 µM

CC(=O)NC[C@H](O)[C@H](O)[C@@H]1OC(C(=O)O)=C[C@H](O)[C@H]1NC(C)=O [Compound 2]
IC50 [2, 7]: 580 µM | IC50 [3, 8]: > 1000 µM | IC50 [4, 9]: 58 µM

CC(=O)N[C@H]1[C@H]([C@@H](O)[C@@H](O)CNC(=O)c2ccccc2)OC(C(=O)O)=C[C@@H]1O [Compound 3]
IC50 [2, 7]: 810 µM | IC50 [3, 8]: 320 µM | IC50 [4, 9]: 13 µM

CC(=O)N[C@H]1[C@H]([C@@H](O)[C@@H](O)CNC(=O)C2CCCC2)OC(C(=O)O)=C[C@@H]1O [Compound 4]
IC50 [2, 7]: > 1000 µM | IC50 [3, 8]: > 1000 µM | IC50 [4, 9]: 135 µM

CC(=O)N[C@H]1[C@H]([C@@H](O)[C@@H](O)CNC(=O)C2CC2)OC(C(=O)O)=C[C@@H]1O [Compound 5]
IC50 [2, 7]: 825 µM | IC50 [3, 8]: > 1000 µM | IC50 [4, 9]: 680 µM

CCCC(=O)NC[C@H](O)[C@H](O)[C@@H]1OC(C(=O)O)=C[C@H](O)[C@H]1NC(C)=O [Compound 6]
IC50 [3, 8]: > 1000 µM | IC50 [4, 9]: 32 µM

CC(=O)N[C@H]1[C@H]([C@@H](O)[C@@H](O)CNC(=O)CC(C)C)OC(C(=O)O)=C[C@@H]1O [Compound 7]
IC50 [2, 7]: > 1000 µM | IC50 [3, 8]: > 1000 µM | IC50 [4, 9]: 565 µM

CCCCC(=O)NC[C@H](O)[C@H](O)[C@@H]1OC(C(=O)O)=C[C@H](O)[C@H]1NC(C)=O [Compound 8]
IC50 [2, 7]: > 1000 µM

CC(=O)N[C@@H]1[C@@H](O)C=C(C(=O)O)C[C@H]1OCC(C)C [Compound 12]
Ki [1]: 880 µM

CC(=O)N[C@@H]1[C@@H](O)C=C(C(=O)O)C[C@H]1OCCCO [Compound 13]
Ki [1]: 740 µM

CC(=O)N[C@@H]1[C@@H](O)C=C(C(=O)O)C[C@H]1OCC(O)CO (stereo partly drawn) [Compound 14]
Ki [1]: 1400 µM

CC(=O)N[C@H]1[C@H]([C@H](O)[C@H](O)Cn2ccnn2)OC(C(=O)O)=C[C@@H]1O [Compound 15]
IC50 [3, 8]: 70 ± 20 µM

CC(=O)N[C@H]1[C@H]([C@H](O)[C@H](O)Cn2cc(-c3ccccc3)nn2)OC(C(=O)O)=C[C@@H]1O [Compound 16]
IC50 [3, 8]: 20 ± 10 µM

CCCCCCc1cn(C[C@@H](O)[C@@H](O)[C@@H]2OC(C(=O)O)=C[C@H](O)[C@H]2NC(C)=O)nn1 [Compound 17]
IC50 [3, 8]: 23 ± 4 µM

CCOc1cn(C[C@@H](O)[C@@H](O)[C@@H]2OC(C(=O)O)=C[C@H](O)[C@H]2NC(C)=O)nn1 [Compound 18]
IC50 [3, 8]: 300 ± 200 µM

CCOC(OCC)c1cn(C[C@@H](O)[C@@H](O)[C@@H]2OC(C(=O)O)=C[C@H](O)[C@H]2NC(C)=O)nn1 [Compound 19]
IC50 [3, 8]: 130 ± 20 µM

CC(=O)N[C@H]1[C@H]([C@H](O)[C@H](O)Cn2cc(COc3ccccc3)nn2)OC(C(=O)O)=C[C@@H]1O [Compound 20]
IC50 [3, 8]: 45 ± 3 µM

CC(=O)N[C@H]1[C@H]([C@H](O)[C@H](O)Cn2cc(CO)nn2)OC(C(=O)O)=C[C@@H]1O [Compound 21]
IC50 [3, 8]: 300 ± 400 µM

CC(=O)N[C@H]1[C@H]([C@H](O)[C@H](O)Cn2cc(CCO)nn2)OC(C(=O)O)=C[C@@H]1O [Compound 22]
IC50 [3, 8]: 400 ± 600 µM

CC(=O)N[C@H]1[C@H]([C@H](O)[C@H](O)Cn2cc(CCCO)nn2)OC(C(=O)O)=C[C@@H]1O [Compound 23]
IC50 [3, 8]: 500 ± 200 µM

CC(=O)N[C@H]1[C@H]([C@H](O)[C@H](O)Cn2cc(C(C)(C)O)nn2)OC(C(=O)O)=C[C@@H]1O [Compound 24]
IC50 [3, 8]: 300 ± 500 µM

O=C(Cn1ccnn1)N[C@H]1[C@H]([C@H](O)[C@H](O)CO)OC(C(=O)O)=C[C@@H]1O [Compound 25]
Ki [3]: 21 ± 8 µM

CCC(CC)O[C@@H]1CC(C(=O)O)C=C(n2cc([C@]3(O)CCC4C5CCc6cc(O)ccc6C5CC[C@@]43C)nn2)[C@H]1NC(C)=O (stereo partly drawn) [Compound 29]
IC50 [2]: 800 ± 400 µM | IC50 ([3]; NEU3 IC50, human NEU3): 350 ± 100 µM

CCC(CC)O[C@@H]1CC(C(=O)O)C=C(n2cc(C(C)(C)O)nn2)[C@H]1NC(C)=O (stereo partly drawn) [Compound 30]
IC50 [3, 8]: 640 ± 210 µM

CC(=O)N[C@H]1[C@H]([C@H](O)[C@H](O)CN=[N+]=[N-])OC(C(=O)O)=C[C@@H]1O [Compound 32]
IC50 [1, 6]: 31 ± 6 µM

[N-]=[N+]=NC[C@@H](O)[C@@H](O)[C@@H]1OC(C(=O)O)=C[C@H](O)[C@H]1NC(=O)CO [Compound 33]
IC50 [1, 6]: 190 µM

COC[C@@H](O)[C@@H](O)[C@@H]1OC(C(=O)O)=C[C@H](O)[C@H]1NC(C)=O [Compound 35]
IC50 [1, 6]: 410 µM

CC(=O)N[C@@H]1C(N=[N+]=[N-])C=C(C(=O)O)OC1C(O)C(O)CO (stereo partly drawn) [Compound 37]
IC50 [2]: 1000 ± 60 µM | IC50 ([3]; NEU3 IC50, human NEU3): 54 ± 5 µM | IC50 [4]: 360 ± 50 µM

CC(=O)N[C@@H]1C(N=[N+]=[N-])C=C(C(=O)O)OC1CNOCc1ccccc1 (stereo partly drawn) [Compound 41]
IC50 ([3]; NEU3 IC50, human NEU3): 24 ± 2 µM

CC(=O)N[C@@H]1C(N=[N+]=[N-])C=C(C(=O)O)OC1CN(Cc1ccccc1)OCc1ccccc1 (stereo partly drawn) [Compound 42]
IC50 [2]: 350 ± 180 µM | IC50 ([3]; NEU3 IC50, human NEU3): 24 ± 11 µM

CC(=O)N[C@@H]1C(N=[N+]=[N-])C=C(C(=O)O)OC1CNNc1ccccc1 (stereo partly drawn) [Compound 43]
IC50 ([3]; NEU3 IC50, human NEU3): 20 ± 8 µM

CC(=O)N[C@@H]1C(N)C=C(C(=O)O)OC1CNc1ccccc1 (stereo partly drawn) [Compound 44]
IC50 ([3]; NEU3 IC50, human NEU3): 540 ± 30 µM

CC(=O)N[C@@H]1C(N)C=C(C(=O)O)OC1CNc1ccccc1 (stereo partly drawn) [Compound 45]
IC50 ([3]; NEU3 IC50, human NEU3): 370 ± 80 µM | IC50 ([1]; NEU2 IC50, human NEU2): 100 ± 13 µM

CC(=O)N[C@@H]1C(O)C=C(C(=O)O)OC1CNNCc1ccc(-c2ccccc2)cc1 (stereo partly drawn) [Compound 47]
IC50 [2]: 200 ± 20 µM | IC50 ([3]; NEU3 IC50, human NEU3): 70 ± 20 µM

CC(=O)N[C@@H]1C(O)C=C(C(=O)O)OC1C(O)C(O)CN=[N+]=[N-] (stereo partly drawn) [Compound 48]
IC50 [2]: 60 ± 20 µM | IC50 ([3]; NEU3 IC50, human NEU3): 19.7 ± 2.3 µM | IC50 [4]: 620 ± 10 µM

[N-]=[N+]=NCC(=O)N[C@@H]1C(O)C=C(C(=O)O)OC1C(O)C(O)CO (stereo partly drawn) [Compound 49]
IC50 [2]: 4.5 ± 0.1 µM | IC50 ([3]; NEU3 IC50, human NEU3): 4.7 ± 0.3 µM | IC50 [4]: 29 ± 0.5 µM

O=C(Cn1cc(-c2ccccc2)nn1)N[C@@H]1C(O)C=C(C(=O)O)OC1C(O)C(O)CO (stereo partly drawn) [Compound 50]
IC50 [2]: 250 ± 40 µM

CC(=O)N[C@H]1C([C@@H](O)[C@@H](O)Cn2cc(-c3ccccc3)nn2)OC(C(=O)O)=C[C@@H]1O (stereo partly drawn) [Compound 51]
IC50 [2, 7]: 2.3 ± 0.2 µM | IC50 [3, 8]: 4.6 ± 0.2 µM | IC50 [4, 9]: 200 ± 30 µM

CCOc1cn(C[C@H](O)[C@H](O)C2OC(C(=O)O)=C[C@H](O)[C@H]2NC(C)=O)nn1 (stereo partly drawn) [Compound 52]
IC50 [2, 7]: 3.6 ± 0.3 µM | IC50 [3, 8]: 90 ± 10 µM | IC50 [4, 9]: 170 ± 20 µM

CC(=O)N[C@H]1C([C@@H](O)[C@@H](O)Cn2cc(OCc3ccccc3)nn2)OC(C(=O)O)=C[C@@H]1O (stereo partly drawn) [Compound 53]
IC50 [2, 7]: 1.7 ± 0.2 µM | IC50 [3, 8]: 5.5 ± 0.6 µM | IC50 [1, 6]: 800 ± 70 µM

CC(=O)N[C@H]1C([C@@H](O)[C@@H](O)Cn2cc(CO)nn2)OC(C(=O)O)=C[C@@H]1O (stereo partly drawn) [Compound 54]
IC50 [3, 8]: 80 ± 10 µM | IC50 [4, 9]: > 1000 µM

CC(=O)N[C@H]1C([C@@H](O)[C@@H](O)Cn2cc(CCO)nn2)OC(C(=O)O)=C[C@@H]1O (stereo partly drawn) [Compound 55]
IC50 [2, 7]: 0.81 ± 0.04 µM | IC50 [3, 8]: 38 ± 2 µM | IC50 [4, 9]: > 1000 µM

CC(=O)N[C@H]1C([C@@H](O)[C@@H](O)Cn2cc(CCCO)nn2)OC(C(=O)O)=C[C@@H]1O (stereo partly drawn) [Compound 56]
IC50 [2, 7]: 2.1 ± 0.1 µM | IC50 [3, 8]: 39 ± 1 µM | IC50 [4, 9]: 660 ± 20 µM

CC(=O)N[C@H]1C([C@@H](O)[C@@H](O)Cn2cc(C(C)(C)O)nn2)OC(C(=O)O)=C[C@@H]1O (stereo partly drawn) [Compound 57]
IC50 [2, 7]: 4 ± 0.3 µM | IC50 [4, 9]: > 1000 µM

SAP: human SAP (Calbiochem), serum amyloid protein
fibrocyte formation / differentiation [5]: No fibrocytes were detected
